Reference: PMC10838953

Key:
STAT3 (S727) = settings: 786-O cells; 48 h
[1] = molecular target: ABL1(Q252H)-nonphosphorylated (Homo sapiens, UniProt P00519, Q252H); assay: biochemical; settings: read-out: %Ctrl @ 2000nM
ARK5 = ARK5 (Homo sapiens, UniProt O60285); assay: biochemical; settings: read-out: %Ctrl @ 2000nM
AXL = AXL (Homo sapiens, UniProt P30530); assay: biochemical; settings: read-out: %Ctrl @ 2000nM
BRK = BRK (Homo sapiens, UniProt Q13882); assay: biochemical; settings: read-out: %Ctrl @ 2000nM
CAMK1G = CAMK1G (Homo sapiens, UniProt Q96NX5); assay: biochemical; settings: read-out: %Ctrl @ 2000nM
DMPK2 = DMPK2 (Homo sapiens, UniProt Q6DT37); assay: biochemical; settings: read-out: %Ctrl @ 2000nM
DRAK1 = DRAK1 (Homo sapiens, UniProt Q9UEE5); assay: biochemical; settings: read-out: %Ctrl @ 2000nM
ERK2 = ERK2 (Homo sapiens, UniProt P28482); assay: biochemical; settings: read-out: %Ctrl @ 2000nM
ERK3 = ERK3 (Homo sapiens, UniProt Q16659); assay: biochemical; settings: read-out: %Ctrl @ 2000nM
FGR = FGR (Homo sapiens, UniProt P09769); assay: biochemical; settings: read-out: %Ctrl @ 2000nM
GAK = GAK (Homo sapiens, UniProt O14976); assay: biochemical; settings: read-out: %Ctrl @ 2000nM
HASPIN = HASPIN (Homo sapiens, UniProt Q8TF76); assay: biochemical; settings: read-out: %Ctrl @ 2000nM
HIPK3 = HIPK3 (Homo sapiens, UniProt Q9H422); assay: biochemical; settings: read-out: %Ctrl @ 2000nM
IKK-beta = IKK-beta (Homo sapiens, UniProt O14920); assay: biochemical; settings: read-out: %Ctrl @ 2000nM
IRAK4 = IRAK4 (Homo sapiens, UniProt Q9NWZ3); assay: biochemical; settings: read-out: %Ctrl @ 2000nM
MAP3K4 = MAP3K4 (Homo sapiens, UniProt Q9Y6R4); assay: biochemical; settings: read-out: %Ctrl @ 2000nM
MST3 = MST3 (Homo sapiens, UniProt Q9Y6E0); assay: biochemical; settings: read-out: %Ctrl @ 2000nM
MYO3B = MYO3B (Homo sapiens, UniProt Q8WXR4); assay: biochemical; settings: read-out: %Ctrl @ 2000nM
NEK4 = NEK4 (Homo sapiens, UniProt P51957); assay: biochemical; settings: read-out: %Ctrl @ 2000nM
NLK = NLK (Homo sapiens, UniProt Q9UBE8); assay: biochemical; settings: read-out: %Ctrl @ 2000nM
PIK3CA(I800L) = PIK3CA(I800L) (Homo sapiens, UniProt P42336, I800L); assay: biochemical; settings: read-out: %Ctrl @ 2000nM
PIK3CA(Q546K) = PIK3CA(Q546K) (Homo sapiens, UniProt P42336, Q546K); assay: biochemical; settings: read-out: %Ctrl @ 2000nM
PIK3CG = PIK3CG (Homo sapiens, UniProt P48736); assay: biochemical; settings: read-out: %Ctrl @ 2000nM
PIP5K2C = PIP5K2C (Homo sapiens, UniProt Q8TBX8); assay: biochemical; settings: read-out: %Ctrl @ 2000nM
PKN1 = PKN1 (Homo sapiens, UniProt Q16512); assay: biochemical; settings: read-out: %Ctrl @ 2000nM
PRKCQ = PRKCQ (Homo sapiens, UniProt Q04759); assay: biochemical; settings: read-out: %Ctrl @ 2000nM
PRKG1 = PRKG1 (Homo sapiens, UniProt Q13976); assay: biochemical; settings: read-out: %Ctrl @ 2000nM
PRKX = PRKX (Homo sapiens, UniProt P51817); assay: biochemical; settings: read-out: %Ctrl @ 2000nM
[2] = molecular target: RPS6KA4(Kin.Dom.2-C-terminal) (Homo sapiens, UniProt O75676); assay: biochemical; settings: read-out: %Ctrl @ 2000nM
[3] = molecular target: RSK3(Kin.Dom.2-C-terminal) (Homo sapiens, UniProt Q15349); assay: biochemical; settings: read-out: %Ctrl @ 2000nM
SRPK3 = SRPK3 (Homo sapiens, UniProt Q9UPE1); assay: biochemical; settings: read-out: %Ctrl @ 2000nM
STK35 = STK35 (Homo sapiens, UniProt Q8TDR2); assay: biochemical; settings: read-out: %Ctrl @ 2000nM
SYK = SYK (Homo sapiens, UniProt P43405); assay: biochemical; settings: read-out: %Ctrl @ 2000nM
TIE2 = TIE2 (Homo sapiens, UniProt Q02763); assay: biochemical; settings: read-out: %Ctrl @ 2000nM
TLK1 = TLK1 (Homo sapiens, UniProt Q9UKI8); assay: biochemical; settings: read-out: %Ctrl @ 2000nM
TNNI3K = TNNI3K (Homo sapiens, UniProt Q59H18); assay: biochemical; settings: read-out: %Ctrl @ 2000nM
TRKB = TRKB (Homo sapiens, UniProt Q16620); assay: biochemical; settings: read-out: %Ctrl @ 2000nM
[4] = molecular target: TYK2(JH2domain-pseudokinase) (Homo sapiens, UniProt P29597); assay: biochemical; settings: read-out: %Ctrl @ 2000nM
YANK3 = YANK3 (Homo sapiens, UniProt Q86UX6); assay: biochemical; settings: read-out: %Ctrl @ 2000nM

Chain of PRKCQ (Q04759 whole entry): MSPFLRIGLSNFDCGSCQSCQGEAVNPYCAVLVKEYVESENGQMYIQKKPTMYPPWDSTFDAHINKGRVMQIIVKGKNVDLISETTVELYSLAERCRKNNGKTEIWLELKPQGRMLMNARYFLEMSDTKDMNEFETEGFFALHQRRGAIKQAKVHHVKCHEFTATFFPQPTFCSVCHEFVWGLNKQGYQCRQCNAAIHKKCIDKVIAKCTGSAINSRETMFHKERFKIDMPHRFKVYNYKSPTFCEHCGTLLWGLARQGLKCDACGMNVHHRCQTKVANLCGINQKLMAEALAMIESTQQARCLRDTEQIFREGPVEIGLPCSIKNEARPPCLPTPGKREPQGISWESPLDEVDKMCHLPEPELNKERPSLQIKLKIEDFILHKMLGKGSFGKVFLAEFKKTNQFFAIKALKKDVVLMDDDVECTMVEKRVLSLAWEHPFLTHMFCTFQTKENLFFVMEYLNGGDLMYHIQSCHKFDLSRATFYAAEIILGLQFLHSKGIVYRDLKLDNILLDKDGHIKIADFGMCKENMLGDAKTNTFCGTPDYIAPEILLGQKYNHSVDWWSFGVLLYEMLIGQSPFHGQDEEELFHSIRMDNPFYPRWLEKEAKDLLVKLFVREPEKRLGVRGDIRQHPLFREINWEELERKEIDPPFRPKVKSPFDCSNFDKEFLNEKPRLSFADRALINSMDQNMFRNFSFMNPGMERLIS
Chain of RPS6KA4(Kin.Dom.2-C-terminal) (O75676 372-772 limits assumed): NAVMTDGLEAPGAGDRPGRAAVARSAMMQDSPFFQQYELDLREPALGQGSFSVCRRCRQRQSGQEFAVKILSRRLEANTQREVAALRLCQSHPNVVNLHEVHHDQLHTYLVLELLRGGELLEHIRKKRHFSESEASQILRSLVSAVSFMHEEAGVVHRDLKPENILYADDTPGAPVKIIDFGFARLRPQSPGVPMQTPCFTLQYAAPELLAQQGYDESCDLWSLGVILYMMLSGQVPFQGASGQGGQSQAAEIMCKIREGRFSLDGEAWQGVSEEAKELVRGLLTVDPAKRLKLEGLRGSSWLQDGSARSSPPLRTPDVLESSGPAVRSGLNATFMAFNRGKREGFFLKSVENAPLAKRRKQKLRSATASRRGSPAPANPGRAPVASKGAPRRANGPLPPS
Chain of ARK5 (O60285 whole entry): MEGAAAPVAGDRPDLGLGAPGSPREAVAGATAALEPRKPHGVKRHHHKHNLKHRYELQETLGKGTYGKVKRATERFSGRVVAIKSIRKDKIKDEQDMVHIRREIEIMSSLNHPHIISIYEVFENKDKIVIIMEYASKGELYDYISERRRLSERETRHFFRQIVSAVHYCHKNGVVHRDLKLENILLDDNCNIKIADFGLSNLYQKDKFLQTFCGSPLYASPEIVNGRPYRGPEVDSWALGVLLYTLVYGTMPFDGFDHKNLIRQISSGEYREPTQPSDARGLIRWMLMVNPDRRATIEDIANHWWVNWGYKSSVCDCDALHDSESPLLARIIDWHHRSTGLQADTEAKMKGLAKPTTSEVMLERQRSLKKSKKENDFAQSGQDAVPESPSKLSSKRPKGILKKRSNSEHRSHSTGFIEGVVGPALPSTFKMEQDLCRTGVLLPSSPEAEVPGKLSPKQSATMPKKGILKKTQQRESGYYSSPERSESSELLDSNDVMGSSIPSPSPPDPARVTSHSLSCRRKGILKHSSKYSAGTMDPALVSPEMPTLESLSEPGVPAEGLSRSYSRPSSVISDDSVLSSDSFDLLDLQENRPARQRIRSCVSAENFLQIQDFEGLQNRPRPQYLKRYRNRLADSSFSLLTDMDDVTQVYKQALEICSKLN
Chain of CAMK1G (Q96NX5 whole entry): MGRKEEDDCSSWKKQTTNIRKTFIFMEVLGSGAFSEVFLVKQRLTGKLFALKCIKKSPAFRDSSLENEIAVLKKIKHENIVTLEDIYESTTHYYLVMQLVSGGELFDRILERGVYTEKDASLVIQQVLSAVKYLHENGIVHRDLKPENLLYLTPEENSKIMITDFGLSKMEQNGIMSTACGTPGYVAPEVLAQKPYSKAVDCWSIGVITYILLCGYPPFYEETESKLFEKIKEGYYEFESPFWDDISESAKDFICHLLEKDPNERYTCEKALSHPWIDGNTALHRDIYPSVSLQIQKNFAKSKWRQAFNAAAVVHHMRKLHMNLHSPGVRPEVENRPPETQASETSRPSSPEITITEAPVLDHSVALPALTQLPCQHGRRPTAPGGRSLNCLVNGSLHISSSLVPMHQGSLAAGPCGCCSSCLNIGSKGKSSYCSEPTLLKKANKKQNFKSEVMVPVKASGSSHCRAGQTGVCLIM
Chain of DMPK2 (Q6DT37 whole entry): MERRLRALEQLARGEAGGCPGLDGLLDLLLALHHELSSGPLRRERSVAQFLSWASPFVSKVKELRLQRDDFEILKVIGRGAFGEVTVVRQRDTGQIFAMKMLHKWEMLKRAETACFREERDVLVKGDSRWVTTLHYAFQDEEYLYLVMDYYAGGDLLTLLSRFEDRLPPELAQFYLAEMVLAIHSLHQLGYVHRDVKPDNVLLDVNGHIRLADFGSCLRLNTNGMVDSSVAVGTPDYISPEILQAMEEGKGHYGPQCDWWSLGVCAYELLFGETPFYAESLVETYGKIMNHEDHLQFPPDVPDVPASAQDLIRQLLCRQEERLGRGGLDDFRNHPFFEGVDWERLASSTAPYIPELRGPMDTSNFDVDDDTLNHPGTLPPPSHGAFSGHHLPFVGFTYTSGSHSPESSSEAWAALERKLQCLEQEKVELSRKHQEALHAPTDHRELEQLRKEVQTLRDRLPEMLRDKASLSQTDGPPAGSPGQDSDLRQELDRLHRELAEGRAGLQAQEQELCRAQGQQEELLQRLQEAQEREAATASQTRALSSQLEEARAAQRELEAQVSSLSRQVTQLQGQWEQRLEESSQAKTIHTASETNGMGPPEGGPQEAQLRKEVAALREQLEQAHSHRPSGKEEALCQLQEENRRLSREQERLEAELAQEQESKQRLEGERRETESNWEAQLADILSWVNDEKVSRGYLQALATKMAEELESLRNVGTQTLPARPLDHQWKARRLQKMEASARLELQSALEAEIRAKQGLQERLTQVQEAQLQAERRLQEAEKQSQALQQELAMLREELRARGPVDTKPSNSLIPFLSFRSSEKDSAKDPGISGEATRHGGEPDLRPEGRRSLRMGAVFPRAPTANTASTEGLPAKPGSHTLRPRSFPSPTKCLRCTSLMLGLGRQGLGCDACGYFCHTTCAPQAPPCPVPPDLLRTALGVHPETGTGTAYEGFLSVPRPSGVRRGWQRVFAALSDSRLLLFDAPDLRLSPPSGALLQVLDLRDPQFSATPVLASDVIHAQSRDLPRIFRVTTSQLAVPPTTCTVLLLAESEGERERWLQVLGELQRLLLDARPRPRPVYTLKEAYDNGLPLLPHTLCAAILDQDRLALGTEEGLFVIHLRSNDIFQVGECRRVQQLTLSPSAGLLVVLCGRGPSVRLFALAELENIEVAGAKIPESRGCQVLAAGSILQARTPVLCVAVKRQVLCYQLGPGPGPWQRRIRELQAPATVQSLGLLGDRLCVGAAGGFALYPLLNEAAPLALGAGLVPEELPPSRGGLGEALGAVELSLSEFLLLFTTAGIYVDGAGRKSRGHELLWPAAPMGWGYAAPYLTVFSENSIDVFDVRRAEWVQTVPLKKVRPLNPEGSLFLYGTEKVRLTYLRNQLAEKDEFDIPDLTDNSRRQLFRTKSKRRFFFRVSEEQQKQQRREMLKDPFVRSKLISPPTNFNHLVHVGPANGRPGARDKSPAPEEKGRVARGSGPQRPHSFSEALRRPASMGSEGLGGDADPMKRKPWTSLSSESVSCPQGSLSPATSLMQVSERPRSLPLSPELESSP
Chain of NEK4 (P51957 whole entry): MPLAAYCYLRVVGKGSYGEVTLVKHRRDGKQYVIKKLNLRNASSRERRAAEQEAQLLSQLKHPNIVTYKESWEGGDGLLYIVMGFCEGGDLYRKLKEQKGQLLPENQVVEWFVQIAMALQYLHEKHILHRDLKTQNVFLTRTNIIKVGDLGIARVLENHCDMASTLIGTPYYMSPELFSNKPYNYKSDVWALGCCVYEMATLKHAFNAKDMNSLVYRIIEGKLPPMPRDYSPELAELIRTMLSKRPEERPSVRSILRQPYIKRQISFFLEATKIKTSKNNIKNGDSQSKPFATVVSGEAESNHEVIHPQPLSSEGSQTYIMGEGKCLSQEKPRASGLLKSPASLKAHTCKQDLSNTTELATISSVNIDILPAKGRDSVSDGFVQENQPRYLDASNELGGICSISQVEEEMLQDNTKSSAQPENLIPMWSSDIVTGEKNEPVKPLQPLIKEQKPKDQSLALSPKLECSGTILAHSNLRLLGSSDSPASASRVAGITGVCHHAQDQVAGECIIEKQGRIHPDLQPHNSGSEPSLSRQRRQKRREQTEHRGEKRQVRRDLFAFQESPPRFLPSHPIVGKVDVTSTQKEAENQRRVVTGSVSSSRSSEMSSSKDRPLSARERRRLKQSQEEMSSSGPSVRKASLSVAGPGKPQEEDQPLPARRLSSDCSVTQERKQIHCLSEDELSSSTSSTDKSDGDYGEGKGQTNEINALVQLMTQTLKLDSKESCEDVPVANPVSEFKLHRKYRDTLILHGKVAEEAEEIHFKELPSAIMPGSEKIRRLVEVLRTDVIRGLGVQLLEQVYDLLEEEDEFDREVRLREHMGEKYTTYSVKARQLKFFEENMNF
Chain of TYK2(JH2domain-pseudokinase) (P29597 589-875 limits assumed): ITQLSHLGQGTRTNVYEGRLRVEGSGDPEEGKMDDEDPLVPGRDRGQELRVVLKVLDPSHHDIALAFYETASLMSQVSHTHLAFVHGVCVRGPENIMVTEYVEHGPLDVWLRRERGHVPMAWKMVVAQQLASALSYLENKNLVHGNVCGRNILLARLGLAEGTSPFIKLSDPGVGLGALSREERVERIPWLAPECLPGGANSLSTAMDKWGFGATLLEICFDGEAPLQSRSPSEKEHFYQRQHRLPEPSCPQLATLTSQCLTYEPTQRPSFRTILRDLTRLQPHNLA

CC(C)COC(=O)c1[nH]c2ccc(F)cc2c1-c1cn(CC2CCN(CCNS(=O)(=O)c3ccc(CC(C)C)cc3)CC2)nn1 [AB668, isobutyl 5-fluoro-3-(1-((1-(2-((4-isobutylphenyl)sulfonamido)ethyl)piperidin-4-yl)methyl)-1H-1,2,3-triazol-4-yl)-1H-indole-2-carboxylate]
%Ctrl @ 2000nM (FLT3(ITD)): 93%
%Ctrl @ 2000nM (FLT3(ITD,D835V)): 77%
activated forms of STAT3 (STAT3 (S727)): dose-dependent inhibition
CK2 inhibition 8 h after inhibitor removal (CK2 in 786-O cells): persisted
remaining activity at 2 µM [1]: 73%
remaining activity at 2 µM (ARK5): 83%
remaining activity at 2 µM (AXL): 100%
remaining activity at 2 µM (BRK): 72%
remaining activity at 2 µM (CAMK1G): 80%
remaining activity at 2 µM (DMPK2): 85%
remaining activity at 2 µM (DRAK1): 100%
remaining activity at 2 µM (ERK2): 100%
remaining activity at 2 µM (ERK3): 91%
remaining activity at 2 µM (FGR): 72%
remaining activity at 2 µM (GAK): 99%
remaining activity at 2 µM (HASPIN): 100%
remaining activity at 2 µM (HIPK3): 98%
remaining activity at 2 µM (IKK-beta): 91%
remaining activity at 2 µM (IRAK4): 92%
remaining activity at 2 µM (MAP3K4): 90%
remaining activity at 2 µM (MST3): 100%
remaining activity at 2 µM (MYO3B): 100%
remaining activity at 2 µM (NEK4): 86%
remaining activity at 2 µM (NLK): 77%
remaining activity at 2 µM (PIK3CA(I800L)): 98%
remaining activity at 2 µM (PIK3CA(Q546K)): 100%
remaining activity at 2 µM (PIK3CG): 90%
remaining activity at 2 µM (PIP5K2C): 81%
remaining activity at 2 µM (PKN1): 91%
remaining activity at 2 µM (PRKCQ): 87%
remaining activity at 2 µM (PRKG1): 85%
remaining activity at 2 µM (PRKX): 69%
remaining activity at 2 µM [2]: 97%
remaining activity at 2 µM [3]: 85%
remaining activity at 2 µM (SRPK3): 100%
remaining activity at 2 µM (STK35): 89%
remaining activity at 2 µM (SYK): 100%
remaining activity at 2 µM (TIE2): 83%
remaining activity at 2 µM (TLK1): 100%
remaining activity at 2 µM (TNNI3K): 96%
remaining activity at 2 µM (TRKB): 87%
remaining activity at 2 µM [4]: 100%
remaining activity at 2 µM (YANK3): 92%
